Assay [1] addresses T1, unphosphorylated VEGF-R2Δ50 (FLVK) (Homo sapiens, UniProt P35968, DEL940-989/E990V).
T1 construct: VEGF-R2Δ50 contains residues 806–939 and 990–1171; made in house; host or cells: baculovirus/insect cell system
Kind of assay: VEGF-R2 coupled spectrophotometric assay, unphosphorylated VEGF-R2Δ50 (FLVK). The assay is classed as biochemical. The following applies: for inhibition at 0.05 µM: read-out: FLVK (% inh @ 50 nM); for inhibition at 0.1 µM: percent inhibition at 100 nM, library amides from Example 101 (R101), crude mixtures in DMSO, read-out: FLVK (% @ 100 nM). From the text:
VEGF-R2 Construct for Assay:
This construct determines the ability of a test compound to inhibit tyrosine kinase activity. A construct (VEGF-R2Δ50) of the cytosolic domain of human vascular endothelial growth factor receptor 2 (VEGF-R2) lacking the 50 central residues of the 68 residues of the kinase insert domain was expressed in a baculovirus/insect cell system. Of the 1356 residues of full-length VEGF-R2, VEGF-R2Δ50 contains residues 806–939 and 990–1171, and also one point mutation (E990V) within the kinase insert domain relative to wild-type VEGF-R2. Autophosphorylation of the purified construct was performed by incubation of the enzyme at a concentration of 4 μM in the presence of 3 mM ATP and 40 mM MgCl2 in 100 mM HEPES, pH 7.5, containing 5% glycerol and 5 mM DTT, at 4° C. for 2 h. […] See Parast et al., Biochemistry, 37, 16788–16801 (1998).
Coupled Spectrophotometric (FLVK-P) Assay
The production of ADP from ATP that accompanies phosphoryl transfer was coupled to oxidation of NADH using phosphoenolpyruvate (PEP) and a system having pyruvate kinase (PK) and lactic dehydrogenase (LDH). The oxidation of NADH was monitored by following the decrease of absorbance at 340 nm (e340=6.22 cm^−1 mM^−1) using a Beckman DU 650 spectrophotometer. Assay conditions for phosphorylated VEGF-R2Δ50 (indicated as FLVK-P in the tables below) were the following: 1 mM PEP; 250 μM NADH; 50 units of LDH/mL; 20 units of PK/mL; 5 mM DTT; 5.1 mM poly(E4Y1); 1 mM ATP; and 25 mM MgCl2 in 200 mM HEPES, pH 7.5. Assay conditions for unphosphorylated VEGF-R2Δ50 (indicated as FLVK in the tables) were the following: 1 mM PEP; 250 μM NADH; 50 units of LDH/mL; 20 units of PK/mL; 5 mM DTT; 20 mM poly(E4Y1); 3 mM ATP; and 60 mM MgCl2 and 2 mM MnCl2 in 200 mM HEPES, pH 7.5. Assays were initiated with 5 to 40 nM of enzyme. Ki values were determined by measuring enzyme activity in the presence of varying concentrations of test compounds. […] The binding inhibitions were fitted to equation as described by Morrison. The data were analyzed using Enzyme Kinetic and Kaleidagraph software.

The target in assay [2] is T2, PDGFRβ (Homo sapiens, UniProt P09619).
T2 construct: expressed in transfected cells; host or cells: porcine aorta endothelial (PAE)-PDGFRβ cells
Kind of assay: PAE-PDGFRβ phosphorylation in PAE-PDGFRB cells assay. It is filed as cell-based. On the procedure: PAE-PDGFRβ Phosphorylation in PAE-PDGFRB Cells Assay
This assay determines the ability of a test compound to inhibit the autophosphorylation of PDGFRβ in porcine aorta endothelial (PAE)-PDGFRβ cells. PAE cells that overexpress human PDGFRβ were used in this assay. The cells were cultured in Ham's F12 media supplemented with 10% fetal bovine serum (FBS) and 400 ug/ml G418. Twenty thousands cells were seeded in each well of a 96-well plate in 50 μL of growth media and allowed to attach for 6 hours at 37° C. Cells were then exposed to the starvation media (Ham's F12 media supplemented with 0.1% FBS) for 16 hours. After the starvation period was over, 10 μL of test agent in 5% DMSO in starvation media were added to the test wells and 10 μL of the vehicle (5% DMSO in starvation media) were added into the control wells. The final DMSO concentration in each well was 0.5%. Plates were incubated at 37° C. for 1 hour and the cells were then stimulated with 1 μg/mL PDGF-BB (R & D System) in the presence of 2 mM Na3VO4 for 8 minutes. The cells were washed once with 1 mm Na3VO4 in HBSS and lysed by adding 50 μL per well of lysis buffer. One hundred μL of dilution buffer were then added to each well and the diluted cell lysate was transferred to a 96-well goat ant-rabbit coated plate (Pierce), which was pre-coated with Rabbit anti Human PDGFRβ antibody (Santa Cruz). The plates were incubated at room temperature for 2 hours and washed seven times with 1% Tween 20 in PBS. HRP-PY20 (Santa Cruz) was diluted and added to the plate for a 30-minute incubation. Plates were then washed again and TMB peroxidase substrate (Kirkegaard & Perry) was added for a 10-minute incubation. One hundred μL of 0.09 N H2SO4 was added into each well of the 96-well plate to stop the reaction. Phosphorylation status was assessed by spectrophotometer reading at 450 nm. IC50 values were calculated by curve fitting using a four-parameter analysis.

Where [3] appears, read: 50 nM compound, unphosphorylated VEGF-R2Δ50.
The mark [4] stands for this setting: PAE cells overexpressing human PDGFRβ, PDGF-BB stimulated, read-out: PAE PDGFR autophos IC50 (nM) AVG.
Where [5] appears, read: library amides from Example 101 (R101), crude mixtures in DMSO, read-out: PAE PDGFR autophos IC50.

Like-named read-outs stand apart in the source and are kept apart here. A value given as a limit tells only on which side of the number the result lay.

Data on 19 compounds can be found in patent US7045528B2, “Benzofused heterozryl amide derivatives of thienopyridines useful as therapeutic agents, pharmaceutical compositions including the same, and methods for their use” (Agouron Pharmaceuticals, Inc., priority 2002, dated 2006).

Broadly, the Ki is the dissociation constant of the complex between target and ligand, obtained from inhibition or displacement. A low value points to higher affinity. What is called IC50 is the concentration needed to halve the response being measured.

T2 sequence (P09619 33-1106): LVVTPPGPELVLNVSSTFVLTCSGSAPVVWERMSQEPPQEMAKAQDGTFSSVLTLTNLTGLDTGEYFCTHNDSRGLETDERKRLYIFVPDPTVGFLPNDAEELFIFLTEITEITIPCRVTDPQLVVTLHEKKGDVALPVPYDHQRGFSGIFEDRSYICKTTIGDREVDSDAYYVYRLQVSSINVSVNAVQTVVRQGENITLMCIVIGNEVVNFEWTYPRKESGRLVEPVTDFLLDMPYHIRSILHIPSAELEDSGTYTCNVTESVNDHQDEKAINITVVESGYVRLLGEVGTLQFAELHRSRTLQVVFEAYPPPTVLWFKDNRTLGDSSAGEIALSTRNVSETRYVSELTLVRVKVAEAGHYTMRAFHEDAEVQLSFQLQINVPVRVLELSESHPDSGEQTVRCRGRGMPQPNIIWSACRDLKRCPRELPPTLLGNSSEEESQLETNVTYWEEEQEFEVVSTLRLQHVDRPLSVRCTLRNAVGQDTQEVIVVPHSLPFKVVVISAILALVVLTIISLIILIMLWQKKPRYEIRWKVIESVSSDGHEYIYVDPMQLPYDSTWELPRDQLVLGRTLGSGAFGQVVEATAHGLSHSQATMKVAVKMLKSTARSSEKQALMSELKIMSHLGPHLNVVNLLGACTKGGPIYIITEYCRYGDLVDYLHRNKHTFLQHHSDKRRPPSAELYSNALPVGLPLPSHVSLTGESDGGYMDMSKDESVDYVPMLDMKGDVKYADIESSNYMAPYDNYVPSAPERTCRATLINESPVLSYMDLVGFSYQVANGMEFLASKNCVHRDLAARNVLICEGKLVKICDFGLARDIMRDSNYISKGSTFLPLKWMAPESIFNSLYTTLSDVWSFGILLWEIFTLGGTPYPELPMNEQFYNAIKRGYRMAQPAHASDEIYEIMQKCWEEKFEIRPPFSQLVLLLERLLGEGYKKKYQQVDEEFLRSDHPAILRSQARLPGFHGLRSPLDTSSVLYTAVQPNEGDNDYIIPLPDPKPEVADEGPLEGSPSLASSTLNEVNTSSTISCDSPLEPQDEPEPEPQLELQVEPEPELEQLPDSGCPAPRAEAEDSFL
T1 sequence (P35968 with tags, fused parts or gaps DEL940-989/E990V limits assumed): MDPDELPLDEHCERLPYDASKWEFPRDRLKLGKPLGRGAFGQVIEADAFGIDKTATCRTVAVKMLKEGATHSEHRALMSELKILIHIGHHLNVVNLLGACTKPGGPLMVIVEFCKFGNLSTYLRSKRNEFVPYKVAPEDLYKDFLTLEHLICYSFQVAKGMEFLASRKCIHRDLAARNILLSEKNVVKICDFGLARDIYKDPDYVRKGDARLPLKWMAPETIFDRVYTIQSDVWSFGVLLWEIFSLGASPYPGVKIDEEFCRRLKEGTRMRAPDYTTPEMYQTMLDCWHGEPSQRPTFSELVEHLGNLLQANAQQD

`CNC(=O)c1c(C)n(C)c2cc(Oc3ccnc4cc(C(=O)N5CC[C@@H](N(C)C(=O)OC(C)(C)C)C5)sc34)ccc12` [Example 34, tert-Butyl-(3R)-1-{[7-({1,2-dimethyl-3-[(methylamino)carbonyl]-1H-indol-6-yl}oxy)thieno[3,2-b]pyridin-2-yl]carbonyl}pyrrolidin-3-yl(methyl)carbamate]: in assay [1] (setting [3]), the inhibition at 0.05 µM came out at 45%. In assay [1] (unphosphorylated VEGF-R2Δ50), the inhibition constant (Ki) is 11.4 nM. In addition, in assay [2] (setting [4]), the IC50 was determined as 31.3 nM.
On the same counts, the results for `CNC(=O)c1c(C)n(C)c2cc(Oc3ccnc4cc(C(=O)N5CC[C@@H](N(C)C)C5)sc34)ccc12` [Example 27, 6-[(2-{[(3R)-3-(Dimethylamino)pyrrolidin-1-yl]carbonyl}thieno[3,2-b]pyridin-7-yl)oxy]-N,1,2-trimethyl-1H-indole-3-carboxamide] are 13%, 96 nM and 205 nM.
In the case of `CNC(=O)c1c(C)n(C)c2cc(Oc3ccnc4cc(C(=O)N(C)CCCN(C)C)sc34)ccc12` [Example 32, N-[3-(Dimethylamino)propyl]-7-({1,2-dimethyl-3-[(methylamino)carbonyl]-1H-indol-6-yl}oxy)-N-methylthieno[3,2-b]pyridine-2-carboxamide], in assay [1] (setting [3]), the inhibition at 0.05 µM was 22%. The affinity in assay [1] (unphosphorylated VEGF-R2Δ50), expressed as Ki, was 39.4 nM. In assay [2] (setting [4]), the IC50 came to 29.2 nM.
For `COC(=O)[C@H](Cc1c[nH]cn1)NC(=O)c1c(C)oc2cc(Oc3ccnc4ccsc34)ccc12`, the inhibition at 0.1 µM in assay [1] is 52%. Moreover, in assay [2] (setting [5]), the IC50 turned out to be 49 nM.
`Cc1sc2cc(Oc3ccnc4ccsc34)ccc2c1C(=O)NCCN1CCOCC1` [Example 133, 2-Methyl 6-(thieno[3,2-b]pyridin-7-yloxy)benzo[b]thiophene-3-carboxylic acid (2-morpholin-4-yl)ethylamide]: the inhibition at 0.05 µM in assay [1] (setting [3]) was 40%. The inhibition constant (Ki) in assay [1] (unphosphorylated VEGF-R2Δ50) was 5.9 nM. The IC50 in assay [2] (setting [4]) turned out to be 468 nM.
In the case of `COC[C@@H]1CCCN1C(=O)c1cc2nccc(Oc3ccc4c(C(=O)NCCCO)c(C)sc4c3)c2s1` [Example 122, 6-[(2-{[(2S)-2-(Methoxymethyl)pyrrolidin-1-yl]carbonyl}thieno[3,2-b]pyridin-7-yl)oxy]-2-methylbenzo[b]thiophene-3-carboxylic acid 3-hydroxypropylamide], in assay [1] (setting [3]), the inhibition at 0.05 µM was 58%. The compound also had an inhibition constant Ki in assay [1] (unphosphorylated VEGF-R2Δ50) of 5.14 nM. Besides, the IC50 in assay [2] (setting [4]) came to 351 nM.
For `CNC(=O)c1c(C)oc2cc(Oc3ccnc4ccsc34)ccc12` [Example 99, 6-[Thieno(3,2-b)pyridin-7-yloxy]-2-methyl-benzofuran-3-carboxylic acid methyl amide], the inhibition at 0.05 µM in assay [1] (setting [3]) was determined as 66%. This compound also gave a Ki in assay [1] (unphosphorylated VEGF-R2Δ50) of 4.68 nM. Also, in assay [2] (setting [4]), the IC50 was 563 nM.
The like results for `CCc1c(C(=O)NC)c2ccc(Oc3ccnc4cc(-c5nccn5C)sc34)cc2n1C` [Example 74, 2-Ethyl-1-methyl-6-[2-(1-methyl-1H-imidazol-2-yl)-thieno[3,2-b]pyridin-7-yloxy]-1H-indole-3-carboxylic acid methylamide] were, in that order, 43%, 12.7 nM and 313 nM.
The like results for `Cc1oc2cc(Oc3ccnc4ccsc34)ccc2c1C(=O)NCCN1CCOCC1` [Example 103, 2-Methyl-6-[thieno[3,2-b]pyridin-7-yloxy]benzofuran-3-carboxylic acid (2-morpholin-4-yl-ethyl)-amide] were, in that order, 52%, 7 nM and 203 nM.
Consider `CCCCNC(=O)c1c(C)oc2cc(Oc3ccnc4ccsc34)ccc12` [Example 105, 2-Methyl-6-[Thieno(3,2-b)pyridin-7-yloxy]benzofuran-3-carboxylic acid butyl amide], for which the inhibition at 0.05 µM in assay [1] (setting [3]) amounted to 61%. This compound also came in with a Ki in assay [1] (unphosphorylated VEGF-R2Δ50) of 8.37 nM. Besides, the IC50 in assay [2] (setting [4]) came to 127 nM.
As for `Cc1oc2cc(Oc3ccnc4ccsc34)ccc2c1C(=O)Nc1cc[nH]n1`, the inhibition at 0.1 µM in assay [1] was found to be 91%. The 50% inhibitory concentration (IC50) in assay [2] (setting [5]) was > 100 nM.
The like results for `COC(=O)C1CN1C(=O)c1c(C)oc2cc(Oc3ccnc4ccsc34)ccc12` (centres unmarked) were, in that order, 51% and > 100 nM.
Take `CO[C@@H]1CCN(C(=O)c2cc3nccc(Oc4ccc5c(C(=O)NCCO)c(C)oc5c4)c3s2)C1` [Example 93, 6-[2-(3-Methoxy-pyrrolidine-1-carbonyl)-thieno[3,2-b]pyridin-7-yloxy]-2-methyl-benzofuran-3-carboxylic acid 2-hydroxyethyl amide]: the inhibition at 0.05 µM in assay [1] (setting [3]) came to 84%. The same compound registered a Ki in assay [1] (unphosphorylated VEGF-R2Δ50) of 2.72 nM. Besides, in assay [2] (setting [4]), the IC50 was 44 nM.
With `Cc1oc2cc(Oc3ccnc4ccsc34)ccc2c1C(=O)NCCN1CCOCC1` [drawing 310], the concentration for half-maximal inhibition (IC50) in assay [2] (setting [5]) came to 50 nM.
As for `CNC(=O)c1cn(C)c2cc(Oc3ccnc4cc(-c5nccn5C)sc34)ccc12` [Example 23, 1-Methyl-6-[2-(1-methyl-1H-imidazol-2-yl)-thieno[3,2-b]pyridin-7-yloxy]-1H-indole-3-carboxylic acid methylamide], the inhibition at 0.05 µM in assay [1] (setting [3]) amounted to 19%. The inhibition constant Ki in assay [1] (unphosphorylated VEGF-R2Δ50) is 78 nM.
On to `Cc1oc2cc(Oc3ccnc4ccsc34)ccc2c1C(=O)O` [Example 100, 2-Methyl-6[thieno[3,2-b]pyridin-7-yloxy]benzofuran-3-carboxylic acid], for which, in assay [1] (setting [3]), the inhibition at 0.05 µM was 0%.
Turning to `CCC(=O)c1cc2nccc(Oc3ccc4c(C(=O)NCCCN5CCOCC5)c(C)n(C)c4c3)c2s1` [Example 68, 1,2-Dimethyl-6-(2-propionyl-thieno[3,2-b]pyridin-7-yloxy)-1H-indole-3-carboxylic acid (3-morpholin-4-yl-propyl)-amide], the inhibition at 0.05 µM in assay [1] (setting [3]) is 37%.
Turning to `CCn1c(C)c(C(=O)NC)c2ccc(Oc3ccnc4cc(-c5nccn5C)sc34)cc21` [Example 72, 1-Ethyl-2-methyl-6-[2-(1-methyl-1H-imidazol-2-yl)-thieno[3,2-b]pyridin-7-yloxy]-1H-indole-3-carboxylic acid methylamide], the inhibition at 0.05 µM in assay [1] came to 2%.
Turning to `CNC(=O)c1cn(C)c2cc(Oc3ccnc4cc(C(=O)N5CC[C@@H](O)C5)sc34)ccc12` [Example 21, 6-{2-[3-(R)-hydroxy-pyrrolidine-1-carbonyl]thieno[3,2-b]pyridin-7-yloxy}-1-methyl-1H-indole-3-carboxylic acid methylamide], the inhibition at 0.05 µM in assay [1] (setting [3]) is 43%. The Ki in assay [1] (unphosphorylated VEGF-R2Δ50) was 13.1 nM.
